Results: patent publication US12180526B2, “Subterranean microalgae for production of microbial biomass, substances, and compositions” (Kuehnle AgroSystems, Inc., priority 2019, dated 2024)

Assay: DPPH Radical Scavenging Activity
Conditions: DPPH 0.06 mM in methanol
Procedure: Extraction and isolation of C-PC are carried out as is known in the art (Wu et al. 2016) using commercial grade biomass from a source in Hawaii. The C-PC is then further purified by ultrafiltration using a 10 kDa membrane to obtain an absorbance ratio of A620/A280 of 1.4 and stored frozen as a lyophilized powder. For testing, powder is solubilized in phosphate-citrate buffer to 0.4 mg/mL. Samples are tested for thermal stability at 65° C. for 30 minutes, at pH 6.0, per Example 3. The addition of EPS at a concentration of 1% (w/v; produced from resolubilized lyophilized powder with no added grinding) results in a reduction of the CR value by 13% compared to the control lacking stabilizing agents after exposure to 65° C. for 30 min at pH 6.0. This indicates added stabilization, which can likely be optimized with additional testing. Antioxidant capacity is measured using the DPPH Radical Scavenging Activity as is known in the art (Alam et al. 2013), with the modification of using DPPH (1,1-diphenyl-2-picrylhydrazyl; Sigma-Aldrich D9132) in methanol (0.06 mM), and readings taken on a Biotek Synergy HTX multi-mode microplate reader.

phycocyanin
antioxidant activity IC50: 1800 µg/mL
